pIC50: −log10 of the molar value.

In general, pIC50 refers to −log10 of the IC50, conventionally taken in molar units.

human NaV subtype, like NaV 1.7, sequence (Q15858 whole entry): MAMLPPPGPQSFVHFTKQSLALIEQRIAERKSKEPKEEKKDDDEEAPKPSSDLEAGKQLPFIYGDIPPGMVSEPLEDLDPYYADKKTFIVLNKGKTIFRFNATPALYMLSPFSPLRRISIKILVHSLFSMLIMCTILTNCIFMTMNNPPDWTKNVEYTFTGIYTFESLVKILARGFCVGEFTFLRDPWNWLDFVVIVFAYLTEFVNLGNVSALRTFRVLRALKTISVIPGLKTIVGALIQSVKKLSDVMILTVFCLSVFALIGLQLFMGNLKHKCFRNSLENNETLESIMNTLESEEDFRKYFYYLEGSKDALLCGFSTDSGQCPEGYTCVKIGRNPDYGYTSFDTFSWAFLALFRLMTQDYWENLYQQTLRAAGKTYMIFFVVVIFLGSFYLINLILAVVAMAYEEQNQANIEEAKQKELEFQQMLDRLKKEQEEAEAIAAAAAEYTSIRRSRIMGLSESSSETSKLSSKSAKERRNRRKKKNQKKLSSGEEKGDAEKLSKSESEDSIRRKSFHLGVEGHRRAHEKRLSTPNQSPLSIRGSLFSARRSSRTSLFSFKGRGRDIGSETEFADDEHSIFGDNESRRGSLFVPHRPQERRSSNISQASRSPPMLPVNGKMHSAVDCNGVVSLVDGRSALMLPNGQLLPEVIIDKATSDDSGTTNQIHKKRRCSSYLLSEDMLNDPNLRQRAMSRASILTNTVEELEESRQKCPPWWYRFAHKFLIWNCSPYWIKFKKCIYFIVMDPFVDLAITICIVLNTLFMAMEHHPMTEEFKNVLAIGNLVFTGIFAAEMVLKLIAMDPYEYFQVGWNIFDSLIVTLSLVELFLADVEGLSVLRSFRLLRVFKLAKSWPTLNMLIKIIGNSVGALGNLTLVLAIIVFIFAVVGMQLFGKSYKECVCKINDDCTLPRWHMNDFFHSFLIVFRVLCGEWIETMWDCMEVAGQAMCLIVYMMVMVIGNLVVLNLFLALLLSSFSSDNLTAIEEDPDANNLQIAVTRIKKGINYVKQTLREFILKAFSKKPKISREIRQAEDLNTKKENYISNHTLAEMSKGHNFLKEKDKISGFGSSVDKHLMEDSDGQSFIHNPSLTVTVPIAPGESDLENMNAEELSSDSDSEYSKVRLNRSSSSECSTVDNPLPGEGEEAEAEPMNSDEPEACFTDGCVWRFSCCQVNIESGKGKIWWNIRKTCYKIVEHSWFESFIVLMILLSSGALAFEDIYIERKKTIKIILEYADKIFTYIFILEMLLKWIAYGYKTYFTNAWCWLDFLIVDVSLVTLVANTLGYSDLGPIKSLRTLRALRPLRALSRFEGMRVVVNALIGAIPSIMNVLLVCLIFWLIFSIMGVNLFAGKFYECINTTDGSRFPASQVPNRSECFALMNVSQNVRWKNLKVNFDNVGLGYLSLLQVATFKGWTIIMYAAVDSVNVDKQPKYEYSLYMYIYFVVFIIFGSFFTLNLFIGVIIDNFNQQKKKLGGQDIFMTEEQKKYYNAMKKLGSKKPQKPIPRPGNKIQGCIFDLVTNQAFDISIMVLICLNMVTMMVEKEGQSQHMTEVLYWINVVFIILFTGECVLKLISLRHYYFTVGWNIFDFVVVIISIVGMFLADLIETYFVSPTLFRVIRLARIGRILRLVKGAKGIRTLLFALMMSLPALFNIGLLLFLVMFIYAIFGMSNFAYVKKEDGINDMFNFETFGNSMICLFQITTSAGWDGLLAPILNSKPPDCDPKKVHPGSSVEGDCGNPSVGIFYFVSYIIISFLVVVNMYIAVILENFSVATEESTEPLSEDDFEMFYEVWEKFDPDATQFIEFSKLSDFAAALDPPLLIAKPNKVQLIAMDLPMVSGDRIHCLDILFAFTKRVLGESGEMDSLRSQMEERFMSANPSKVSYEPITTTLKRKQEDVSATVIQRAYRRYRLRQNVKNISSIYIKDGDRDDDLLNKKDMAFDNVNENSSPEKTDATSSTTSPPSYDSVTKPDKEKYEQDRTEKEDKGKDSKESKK

For this assay, the target named is human NaV subtype, like NaV 1.7 (Homo sapiens, UniProt Q15858). Kind of assay: E-VIPR optical membrane potential assay with electrical stimulation. It counts as cell-based. Conditions: one or more sodium channels; assay and NaV subtype not specified for Table 3; read-out: IC50 Binned Activity Data. The text has this:
Assays for Detecting and Measuring NaV Inhibition Properties of Compound E-VIPR Optical Membrane Potential Assay Method with Electrical Stimulation
Sodium channels are voltage-dependent proteins that can be activated by inducing membrane voltage changes by applying electric fields. The electrical stimulation instrument and methods of use are described in Ion Channel Assay Methods PCT/US01/21652, herein incorporated by reference and are referred to as E-VIPR. The instrument comprises a microtiter plate handler, an optical system for exciting the coumarin dye while simultaneously recording the coumarin and oxonol emissions, a waveform generator, a current- or voltage-controlled amplifier, and a device for inserting electrodes in well. Under integrated computer control, this instrument passes user-programmed electrical stimulus protocols to cells within the wells of the microtiter plate.
24 hours before the assay on E-VIPR, HEK cells expressing human NaV subtype, like NaV 1.7, are seeded in 384-well poly-lysine coated plates at 15,000-20,000 cells per well. Other subtypes are performed in an analogous mode in a cell line expressing the NaV of interest. HEK cells are grown in media (exact composition is specific to each cell type and NaV subtype) supplemented with 10% FBS (Fetal Bovine Serum, qualified; GibcoBRL #16140-071) and 1% Pen-Strep (Penicillin-Streptomycin; GibcoBRL #15140-122). Cells are grown in vented cap flasks, in 90% humidity and 10% CO2, to 100% confluence. They are usually split by trypsinization 1:10 or 1:20, depending on scheduling needs, and grown for 2-3 days before the next split.
100 mg/mL Pluronic F-127 (Sigma #P2443), in dry DMSO
Compound Plates: 384-well round bottom plate, e.g. Corning 384-well Polypropylene Round Bottom #3656
Cell Plates: 384-well tissue culture treated plate, e.g. Greiner #781091-1B
Bath1 buffer. Glucose 10 mM (1.8 g/L), Magnesium Chloride (Anhydrous), 1 mM (0.095 g/L), Calcium Chloride, 2 mM (0.222 g/L), HEPES 10 mM (2.38 g/L), Potassium Chloride, 4.5 mM (0.335 g/L), Sodium Chloride 160 mM (9.35 g/L).
Hexyl Dye Solution: Bath1 Buffer+0.5% β-cyclodextrin (make this prior to use, Sigma #C4767), 8 μM CC2-DMPE+2.5 μM DiSBAC6(3). To make the solution Add volume of 10% Pluronic F127 stock equal to volumes of CC2-DMPE+DiSBAC6(3). The order of preparation is first mix Pluronic and CC2-DMPE, then add DiSBAC6(3) while vortexing, then add Bath1+β-Cyclodextrin.
1) Pre-spot compounds (in neat DMSO) into compound plates. Vehicle control (neat DMSO), the positive control (20 mM DMSO stock tetracaine, 125 μM final in assay) and test compounds are added to each well at 160× desired final concentration in neat DMSO. Final compound plate volume will be 80 μL (80-fold intermediate dilution from 1 μL DMSO spot; 160-fold final dilution after transfer to cell plate). Final DMSO concentration for all wells in assay is 0.625%.
2) Prepare Hexyl Dye Solution.
3) Prepare cell plates. On the day of the assay, medium is aspirated and cells are washed three times with 100 μL of Bath1 Solution, maintaining 25 μL residual volume in each well.
4) Dispense 25 μL per well of Hexyl Dye Solution into cell plates. Incubate for 20-35 minutes at room temp or ambient conditions.
5) Dispense 80 μL per well of Bath1 into compound plates. Acid Yellow-17 (1 mM) is added and Potassium Chloride can be altered from 4.5 to 20 mM depending on the NaV subtype and assay sensitivity.
6) Wash cell plates three times with 100 μL per well of Bath1, leaving 25 of residual volume. Then transfer 25 uL per well from Compound Plates to Cell Plates. Incubate for 20-35 minutes at room temp/ambient condition
7) Read Plate on E-VIPR. Use the current-controlled amplifier to deliver stimulation wave pulses for typically 9 seconds and a scan rate of 400 Hz. A pre-stimulus recording is performed for 0.5 seconds to obtain the un-stimulated intensities baseline. […]
As to `CCCOC1CC(c2cncs2)OC2(CCN(C(=O)c3ccc(OC(C)C)c(C)c3)CC2)C1` (stereo not drawn) [Compound 8], the pIC50 is not below 5.70.

`CCOC1CC(c2cncs2)OC2(CCN(C(=O)c3ccc(OC(C)C)c(C)c3)CC2)C1` (stereo not drawn) [Compound 18]: the pIC50 was not below 5.70.

`CCOC1CC(c2ccccc2)OC2(CCN(C(=O)c3ccc(F)c(F)c3OC)CC2)C1` (stereo not drawn) [Compound 19]: the pIC50 is not below 5.70.

Turning to `CCOC1CC(c2ccccc2)OC2(CCN(C(=O)c3cc(C)c(OC(C)C)c(C)c3)CC2)C1` (stereo not drawn) [Compound 29], the pIC50 was not below 5.70.

Take `CCOC1CC(c2cccnc2)OC2(CCN(C(=O)c3ccc(C(C)(C)C)c(OC)c3)CC2)C1` (stereo not drawn) [Compound 37]: the pIC50 is not below 5.70.

Take `CCOC1CC(c2cccnc2)OC2(CCN(C(=O)c3ccc(OC(C)C)c(C)n3)CC2)C1` (stereo not drawn) [Compound 38]: the pIC50 was 5.30 to 5.70.

In the case of `CCOC1CC(c2cccnc2)OC2(CCN(C(=O)c3ccc(OCCC(C)C)c(OC)c3)CC2)C1` (stereo not drawn) [Compound 39], the pIC50 was not below 5.70.

As to `CCOC1CC(c2ccccc2)OC2(CCN(C(=O)c3ccc(COCC(F)(F)F)cc3)CC2)C1` (stereo not drawn) [Compound 46], the negative logarithm of the IC50 (pIC50) is not below 5.70.

With `CCOC1CC(c2ccccc2)OC2(CCN(C(=O)c3ccc(C#N)c(C)n3)CC2)C1` (stereo not drawn) [Compound 50], the pIC50 was less than 5.30.

For `CCOC1CC(c2ccccc2)OC2(CCN(C(=O)c3cc(-c4ccc(C)cc4)on3)CC2)C1` (stereo not drawn) [Compound 53], the pIC50 is 5.30 to 5.70.

As to `CCOC1CC(c2ccccc2)OC2(CCN(C(=O)c3ccc(OC)c(OC(F)F)c3)CC2)C1` (stereo not drawn) [Compound 62], the pIC50 is not below 5.70.

For `CCOC1CC(c2ccccc2)OC2(CCN(C(=O)c3cccnc3N3CCCCC3)CC2)C1` (stereo not drawn) [Compound 64], the pIC50 was not below 5.70.

With `CCOc1ncc(Cl)cc1C(=O)N1CCC2(CC1)CC(OCC)CC(c1ccccc1)O2` (stereo not drawn) [Compound 68], the negative-log IC50 (pIC50) was 5.30 to 5.70.

Turning to `CCOC1CC(c2ccccc2)OC2(CCN(C(=O)c3ccc(N4CCCC4)nc3)CC2)C1` (stereo not drawn) [Compound 70], the pIC50 was 5.30 to 5.70.

For `CCOC1CC(c2ccccc2)OC2(CCN(C(=O)c3cccnc3NC(C)C)CC2)C1` (stereo not drawn) [Compound 75], the negative logarithm of the IC50 (pIC50) is not below 5.70.

With `CCOC1CC(c2ccccc2)OC2(CCN(C(=O)c3c[nH]c4ncccc34)CC2)C1` (stereo not drawn) [Compound 89], the pIC50 was not below 5.70.

In the case of `CCOC1CC(c2ccccc2)OC2(CCN(C(=O)c3ccc(N4CCOCC4)cc3)CC2)C1` (stereo not drawn) [Compound 93], the pIC50 was not below 5.70.

As to `CCOC1CC(c2ccccc2)OC2(CCN(C(=O)c3cnc4ccccc4c3)CC2)C1` (stereo not drawn) [Compound 95], the pIC50 is less than 5.30.

On to `CCOC1CC(c2ccccc2)OC2(CCN(C(=O)c3ccc(C)cc3F)CC2)C1` (stereo not drawn) [Compound 97], for which the pIC50 is not below 5.70.

As to `CCOC1CC(c2ccccc2)OC2(CCN(C(=O)c3cccc(C)n3)CC2)C1` (stereo not drawn) [Compound 122], the pIC50 is less than 5.30.

Turning to `CCOC1CC(c2ccccc2)OC2(CCN(C(=O)c3ccc(OC(C)C)c(C#N)c3)CC2)C1` (stereo not drawn) [Compound 127], the pIC50 was not below 5.70.

Consider `CCOC1CC(c2ccccc2)OC2(CCN(C(=O)c3ccc(OC(F)F)c(OC)c3)CC2)C1` (stereo not drawn) [Compound 135], for which the negative-log IC50 (pIC50) is not below 5.70.

Regarding `CCOC1CC(c2ccccc2)OC2(CCN(C(=O)c3ccc(OC(C)(C)C)c(OC)c3)CC2)C1` (stereo not drawn) [Compound 137], the pIC50 is not below 5.70.

With `CCOC1CC(c2ccccc2)OC2(CCN(C(=O)c3ccc(O[C@@H](C)CC)c(OC)c3)CC2)C1` (stereo partly drawn) [Compound 139], the negative-log IC50 (pIC50) is not below 5.70.

Consider `CCOC1CC(c2ccccc2)OC2(CCN(C(=O)c3ccc(OC(C)C)c(Cl)c3)CC2)C1` (stereo not drawn) [Compound 171], for which the pIC50 is not below 5.70.

As to `CCOC1CC(c2ccccc2)OC2(CCN(C(=O)c3ccc(C4(O)CCC4)cc3)CC2)C1` (stereo not drawn) [Compound 176], the pIC50 was not below 5.70.

As to `CCOC1CC(CC)OC2(CCN(C(=O)c3ccc(OC(C)C)c(C)c3)CC2)C1` (stereo not drawn) [Compound 194], the pIC50 was 5.30 to 5.70.

Values taken from patent US9403839B2, “Pyran-spirocyclic piperidine amides as modulators of ion channels” (Vertex Pharmaceuticals Incorporated, priority 2012, dated 2016).
